Measured values published in article PMC11205445, “Babesia duncani Pyruvate Kinase Inhibitor Screening and Identification of Key Active Amino Acid Residues” (Microorganisms, 2024).
Where “and” joins values, the source holds several entries; their conditions need not be identical. Equal entries are not always repeated. Where two headings read alike, the source gives them in different places.

Key:
[1] = target: T1, BdPyK I (Babesia duncani, UniProt A0AAD9PKI2); test: Enzyme kinetics of BdPyK I with gradient concentrations of substrates PEP and ADP; settings: substrate of BdPyK I
T1 sequence (A0AAD9PKI2 entry or part of it): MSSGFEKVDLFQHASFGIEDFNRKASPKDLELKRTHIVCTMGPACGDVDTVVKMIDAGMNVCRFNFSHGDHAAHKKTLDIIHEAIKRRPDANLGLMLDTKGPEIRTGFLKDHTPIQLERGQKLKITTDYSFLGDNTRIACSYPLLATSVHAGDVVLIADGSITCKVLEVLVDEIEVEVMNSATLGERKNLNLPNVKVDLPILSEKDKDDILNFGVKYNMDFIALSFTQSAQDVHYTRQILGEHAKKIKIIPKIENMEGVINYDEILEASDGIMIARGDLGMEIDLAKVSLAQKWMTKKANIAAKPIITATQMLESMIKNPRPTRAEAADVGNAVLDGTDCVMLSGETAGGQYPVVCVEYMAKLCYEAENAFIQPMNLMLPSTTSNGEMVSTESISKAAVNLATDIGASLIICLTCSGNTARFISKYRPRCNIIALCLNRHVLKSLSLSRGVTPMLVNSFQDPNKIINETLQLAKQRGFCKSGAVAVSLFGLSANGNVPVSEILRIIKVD
Experimental: (§2) To conduct standard enzyme kinetics analysis, we employed a spectrophotometer (BioTek, located in Winooski, VT, USA) to monitor the degradation of NADH at 340 nm wavelength. At 37 °C, the oxidation of 1 micromole of NADH per minute was defined as one unit of PyK activity. Samples were measured continuously at 2, 7, 12, 17, 22, and 27 min. In order to investigate the influence of pH, Mg^2+, and K^+ concentrations on activity, tests were conducted within the pH range of 4.0–8.0 and Mg^2+ and K^+ concentrations ranging from 0 to 200 mM, including concentrations of 0, 25, 50, 75, 100, 125, 150, 175, and 200 mM. A reaction system with a total volume of 200 mL was designed, comprising 50 mM Tris-HCl buffer (pH 7.5), 50 mM MgCl2, 20 mM KCl, 3 mM PEP (MilliporeSigma), 3 mM ADP (MilliporeSigma), 0.5 mM NADH (MilliporeSigma), 100 ng recombinant lactate dehydrogenase (rBdLDH), and 100 ng BdPyK I. Enzyme activity was assessed by calculating the initial rate of NADH degradation within the first 5 min and determining the relative percentage activity.
(§3) Subsequently, Michaelis–Menten equations for the reactants PEP and ADP were formulated based on gradient concentrations, and corresponding enzyme kinetics curves were delineated.

[2] = target: T1, BdPyK I; test: BdPyK I enzyme inhibition, indirect coupled lactate dehydrogenase assay (NADH at 340 nm); type: biochemical
Text: This study aimed to investigate the effects of six small-molecule compounds on the enzyme activity of BdPyK I. These selected compounds, including PKM2 inhibitor, shikonin, tannic acid, apigenin, pioglitazone, and rosiglitazone, were initially dissolved in their respective stock concentrations using dimethyl sulfoxide (DMSO) or absolute ethanol as solvents. Subsequently, an indirect coupling lactate dehydrogenase assay was employed to evaluate the influence of these compounds on BdPyK I enzyme activity.
To conduct standard enzyme kinetics analysis, we employed a spectrophotometer (BioTek, located in Winooski, VT, USA) to monitor the degradation of NADH at 340 nm wavelength. At 37 °C, the oxidation of 1 micromole of NADH per minute was defined as one unit of PyK activity. Samples were measured continuously at 2, 7, 12, 17, 22, and 27 min. In order to investigate the influence of pH, Mg^2+, and K^+ concentrations on activity, tests were conducted within the pH range of 4.0–8.0 and Mg^2+ and K^+ concentrations ranging from 0 to 200 mM, including concentrations of 0, 25, 50, 75, 100, 125, 150, 175, and 200 mM. A reaction system with a total volume of […] was designed, comprising 50 mM Tris-HCl buffer (pH 7.5), 50 mM MgCl2, 20 mM KCl, 3 mM PEP (MilliporeSigma), 3 mM ADP (MilliporeSigma), 0.5 mM NADH (MilliporeSigma), 100 ng recombinant lactate dehydrogenase (rBdLDH), and 100 ng BdPyK I. Enzyme activity was assessed by calculating the initial rate of NADH degradation within the first 5 min and determining the relative percentage activity.
Under the conditions of 3 mM PEP and 3 mM ADP, the influence of six different small-molecule compounds on the enzymatic activity of BdPyK I was investigated across varying concentrations (0–500 μM). […] The group with the addition of DMSO was designated as the negative control group. The inhibition rate was calculated using the following formula: Inhibitor (%) = (ΔAcontrol − ΔAsample)/ΔAcontrol × 100%. All experiments were independently repeated three times to enhance the reliability and accuracy of the results. Following completion of the experiments, enzyme activity data were analyzed using GraphPad Prism 8.0 software. IC50 values for each small-molecule compound were calculated using software analysis functions. The IC50 value represents the compound concentration required to decrease enzyme activity by 50% and serves as a fundamental parameter for evaluating the inhibitory effect of compounds on enzyme activity.

[3] = system: B. duncani; test: In vitro growth inhibition assay of Babesia duncani (SYBR Green, 72 h); type: cell-based; settings: for parasite growth inhibition: at approximately 40 μM
[4] = system: Nc1ncnc2c1ncn2[C@@H]1O[C@H](COP(=O)(O)OP(=O)(O)O)[C@@H](O)[C@H]1O; test: purified protein, by the assay type; settings: other: substrate of BdPyK I, gradient concentration; pH 7.5; 37.0 °C
Experimental: as §2, §3

[5] = system: C=C(OP(=O)(O)O)C(=O)O; test: purified protein, by the assay type; settings: other: substrate of BdPyK I, gradient concentration; pH 7.5; 37.0 °C
Experimental: as §2, §3

[6] = system: HFF cells; design: method as in PMID 34603237; settings: cited from earlier work
[7] = system: vero cells; design: method as in PMID 34603237; settings: cited from earlier work
[8] = target: BdLDH; test: Effect of compounds on BdLDH enzyme activity (counter-screen of the coupled assay); type: biochemical, Babesia duncani; settings: BdLDH activity evaluated separately
[9] = system: vero cells; test: Cytotoxicity assay, vero cells; type: cell-based; settings: CC50 Vero versus IC50 B. duncani
Text: (§1) The IC50 value represents a standard metric indicating the concentration of a drug or compound necessary to impede a biological process or inhibit cell growth. In this experiment, the IC50 values of six different compounds against B. duncani in vitro were compared with their IC50 values for BdPyK I activity. […] To contextualize these findings, the CC50 values for vero cells and HFF cells from cytotoxicity assay data were considered collectively. […] Considering the activity, selectivity, and potential toxicity, this study conducted a comprehensive evaluation of the selectivity index (SI).

[10] = system: HFF cells; test: Cytotoxicity assay, HFF cells; type: cell-based; settings: CC50 HFF versus IC50 B. duncani
Text: as §1

[11] = design: method as in PMID 34603237; settings: in vivo experiments with Babesia rodents; cited from earlier work
[12] = 3 mM PEP and 3 mM ADP, compound 0–500 μM, read-out: IC50 PyK I
[13] = Babesia duncani, 72 h incubation, SYBR Green, read-out: IC50 of B. duncani growth inhibition (Figure 10)
[14] = Babesia duncani, in vitro culture, 72 h, Table 3, read-out: IC50 B. duncani

Row | Compound | IC50 [2, 12] | CC50 [6] | CC50 [7] | Selectivity Index (SI) Vero [9] | IC50 [3, 14] | Selectivity Index (SI) HFF [10] | also measured
1 | Nc1ncnc2c1ncn2[C@@H]1O[C@H](COP(=O)(O)OP(=O)(O)O)[C@@H](O)[C@H]1O [ADP] |  |  |  |  |  |  | Kcat [1]: 16 S^−1; Vmax ([1]; gradient concentration): 0.3234 ± 0.018 mM/min
2 | CN(CCOc1ccc(CC2SC(=O)NC2=O)cc1)c1ccccn1 (stereo not shown) [Rosiglitazone] | 7.36 µM |  |  |  |  |  | IC50 [3, 13]: 20.9 µM; parasite growth inhibition ([3]; 72 h): 80%
3 | BdPyK I (Babesia duncani) |  |  |  |  |  |  | Km [4]: 310 µM and 313.6 ± 24 µM; Km [5]: 450 ± 104 µM; Vmax [5]: 370 µM/min; kcat [5]: 18.3 s⁻¹; kcat/Km [5]: 40100 M⁻¹ s⁻¹
4 | Tannic acid | 0.03 µM | 36.5 ± 3.88 µM | 53 ± 2.37 µM |  |  |  | IC50 ([2]; 3 mM PEP and 3 mM ADP, read-out: IC50 on BdPyK I (Figure 9)): 0.0332 µM; IC50 ([2]; Table 3, read-out: IC50 PyK I Activity): 0.03 µM; IC50 ([3]; in vitro culture, 72 h, Table 3, read-out: IC50 B. duncani): 1.71 ± 0.33 µM; IC50 [8]: 1.32 µM
5 | O=c1cc(-c2ccc(O)cc2)oc2cc(O)cc(O)c12 [Apigenin] |  | 36 ± 2.95 µM | 58.2 ± 2.67 µM | 20.64 | 2.81 ± 1.06 µM | 12.8 | IC50 [2]: 7.49 µM; toxicity in vivo [11]: high toxicity
6 | CCc1ccc(CCOc2ccc(CC3SC(=O)NC3=O)cc2)nc1 (stereo not shown) [Pioglitazone] | 27.5 µM |  |  |  |  |  | IC50 [3, 13]: 15.4 µM; parasite growth inhibition ([3]; 72 h): 80%
7 | CC(C)=CC[C@@H](O)C1=CC(=O)c2c(O)ccc(O)c2C1=O [Shikonin] | 16.5 µM | 0.63 ± 0.32 µM | 2.34 ± 0.29 µM | 0.64 | 3.68 ± 0.48 µM | 0.17 | 
8 | CC1=C(CSC(=S)N2CCCCC2)C(=O)c2ccccc2C1=O [PKM2 inhibitor] | 10.9 µM | 18.7 ± 1.99 µM | 39.3 ± 8.32 µM | 243 | 0.16 ± 0.08 µM | 116 | growth inhibition rate ([3]; at approximately 2 μM, 72 h): 85%
